Results reported in ChEMBL document CHEMBL3507680, “University of Dundee, Gates Library screen for HepG2 cell viability”.

Test: Human HepG2 cell viability assay in 384 well format
Type: toxicity, cell-based
Parameters: dose 125 nL, time 70.5 hour; cytotoxicity at 70.5 h: concentration not given beside the values
Details: HepG2 cells, read-out: Inhibition

| SMILES | cytotoxicity at 70.5 h [%] |
| --- | --- |
| COc1c(CNC2CCSc3ccc(F)cc32)c(C)nn1C (stereo not drawn) | 25.9 |
| CCOCCNC1(c2ccc(Cl)cc2)CCOCC1 | 9.63 |
| CCC[C@@H]1CN(C(=O)c2cc(-c3cccs3)n(C)n2)C[C@H]1NS(C)(=O)=O | -4.08 |
| O=C(NCc1cncc2c1CCN(Cc1cccs1)C2)C1CC1 | -13.8 |
| CN1CCCN(C(=O)c2cnsn2)c2cc(Cl)ccc21 | -13.8 |
| COc1ccc(CCNC(=O)Nc2cc(C)nn2C)cc1 | -2.92 |
| O=C1CN(C(=O)c2cccc(OCc3cscn3)c2)CCN1 | -1.69 |
| O=S1(=O)CCC(c2nnc(-c3cnc4onc(C5CC5)c4c3)o2)C1 (stereo not drawn) | -2.78 |
| Cn1cncc1CN1CCCC1c1cncc(Oc2ccc(F)cc2)n1 (stereo not drawn) | -10.5 |
| CCC(=O)N1CCN(c2cc(-n3cnc(C)c3C)nc(C)n2)CC1 | 20.4 |
| CCN1CCC2(C1)CN(S(=O)(=O)c1cn(C)cn1)C2 | -5.09 |
| Cc1nn(C)c(=O)c2nn(-c3ccc(F)cc3)c(C)c12 | -8.42 |
| CSC1=Nc2c(cnn2-c2ccccc2)C2=NCCCN12 | -8.98 |
| CCC(CO)N(Cc1ccccn1)C(=O)c1ccc(CSC)o1 (stereo not drawn) | -0.517 |
| OC1(CN2CCOC(CNc3cccnn3)C2)CCCCC1 (stereo not drawn) | 0.208 |
| CN(CCN1CCOCC1)S(=O)(=O)CC1CCCC1 | -0.906 |
| CN1C(=O)CC2(CCN(S(=O)(=O)c3cccs3)CC2)c2ccccc21 | 8.66 |
| CN(C)[C@@H]1CCN(C(=O)CC2CC2)[C@H]1Cc1cnn(C)c1 | -7.51 |
| O=C(c1cccnc1)N1CCCC(c2cc(C(F)F)n3ncnc3n2)C1 (stereo not drawn) | -13.8 |
| O=S(=O)(Cc1c(F)cccc1Cl)Cc1nnnn1C1CC1 | -13.2 |

| SMILES | cytotoxicity at 70.5 h [%] |
| --- | --- |
| O=C(c1cc(Cl)c2c(c1)OCCO2)N1CCCC(n2cncn2)C1 (stereo not drawn) | -10.2 |
| Cc1cc(CN2CCC(CNC(=O)Cc3ccc(F)cc3)C2)[nH]n1 (stereo not drawn) | -7.47 |
| CNC(=O)[C@@H]1C[C@@H](N)CN1C(=O)CCSCc1ccccc1 | -4.11 |
| CSc1ccc(C(O)CNS(=O)(=O)C2CC2)cc1 (stereo not drawn) | 2.97 |
| Clc1ccc(OCCc2cc(C3CCN(c4ncccn4)C3)n[nH]2)cc1 (stereo not drawn) | 0.0716 |
| Cc1cccc(CN2CCCC2c2cncc(Nc3nncs3)n2)c1 (stereo not drawn) | 2.33 |
| CN(C)C(=O)C1CCC2(CCN(C(=O)Nc3cccc(F)c3)CC2)O1 (stereo not drawn) | -5.9 |
| O=c1c2cccnc2cnn1CC(O)c1cccc(C(F)(F)F)c1 (stereo not drawn) | 11.1 |
| CC(=O)N1CCc2c(nc(N(C)C)nc2N(C)CCC2CCCCO2)C1 (stereo not drawn) | 11.3 |
| CN(C)S(=O)(=O)N1CC[C@]2(O)CCN(Cc3cccc(C#N)c3)C[C@@H]2C1 | 9.63 |
| O=C(CCN1CCCC(CC2CC2)(C(=O)O)C1)NC1CCCC1 (stereo not drawn) | -9.72 |
| Cc1nc(CNC(=O)NCCC2=CCCC2)oc1C | 7.64 |
| Cc1ccc(CNC(=O)C2CCN(C(=O)c3ccco3)CC2)n1C | 20.7 |
| CC(C)C(=O)NC1CCCN(C(=O)c2cc3ccccc3cc2O)C1 (stereo not drawn) | -4.18 |
| O=C(CCCc1ccccn1)Nc1cccc(N2CCCNC2=O)c1 | -0.166 |
| Cn1cc(CN2CCO[C@@H]3CN(Cc4ccoc4)C[C@@H]3C2)cn1 | -0.642 |
| COc1ccc(CN2CCNC(=O)CC2)cc1SC(F)(F)F | 1.64 |
| Cc1cnn(CCCNC(=O)NC2CCN(CC(F)(F)F)C2=O)c1 (stereo not drawn) | -4.78 |
| CC(C)c1nccn1C1CCCN(C(=O)CCCc2ccccn2)C1 (stereo not drawn) | -10.5 |
| CC(c1cc(F)ccc1F)N(C)C(=O)NCc1ccnc(N(C)C)c1 (stereo not drawn) | 2.05 |

| SMILES | cytotoxicity at 70.5 h [%] |
| --- | --- |
| CCc1n[nH]c(C2CN(CCCOc3cccc(C)c3)CCO2)n1 (stereo not drawn) | -3.37 |
| O=C(CCc1ccncc1)N1CCCC(N2CCNC2=O)C1 (stereo not drawn) | -19.2 |
| CC(C)CC(=O)NCCCn1cncn1 | 16.9 |
| COCCN1CCC12CCN(C(=O)c1ccc3[nH]ccc3c1)C2 (stereo not drawn) | -7.37 |
| Cn1ccnc1-c1cn(CCCc2nnc(N)s2)nn1 | -19.9 |
| CN1CCC(N(Cc2ccccc2)C(=O)c2ccn3ccnc3c2)CC1 | -2.58 |
| CN1CCN(c2ccccc2NC(=O)c2ccco2)CC1 | -6.77 |
| CCNC(=O)N1CCN(Cc2nc3ccccc3[nH]2)[C@@H]2CS(=O)(=O)C[C@@H]21 | -9.34 |
| CC(C)(C)c1noc(CNc2ccccc2N2CCC(O)CC2)n1 | -8.28 |
| CN(CCS(=O)(=O)c1cc(Cl)ccc1Cl)CC(=O)Nc1ccc(F)cc1 | 6.55 |
| CCc1c(C)nn(CC(=O)NC(C)c2n[nH]c(C)n2)c1C (stereo not drawn) | 16.1 |
| Cn1nc(COCC2CC2)c2c1CN(CC1CC1)CC2 | -0.347 |
| CCN(CC1CCOC1)C(=O)c1cnc2onc(C)c2c1 (stereo not drawn) | -8.61 |
| Cc1cc2c(cc1Cl)C=CC1(CCN(CC(=O)NC3CCCC3)CC1)O2 | -1.12 |
| Cc1ccc(C)c(Oc2ccc(CNC(=O)C3CCC(=O)N3)cn2)c1 (stereo not drawn) | -4.69 |
| CN(C)C(=O)c1nc(-c2ccc(S(C)(=O)=O)cc2)c2ccccn12 | -12.8 |
| CCSc1nc2ccccc2c(=O)n1OCC(=O)OC | -8.5 |
| CN(Cc1ccccn1)C(=O)c1nc(S(C)(=O)=O)n2ccccc12 | 1.32 |
